Legend:
[1] = tested on: SCLC H69 tumours; assay: Histology (mitosis, apoptosis, necrosis) of SCLC H69 tumours; format: in vivo, human (xenograft in nude mice); details: for Extent of necrosis (in words): SCLC H69 tumours, point-counting method, differences from control not significant statistically; for Apoptotic index / Mitotic index: Table II, Experiment I (SCLC H69), means ? s.e.; for Apoptotic index: apoptotic cells per 1,000 cells, control 35.4 ? 2.6; for Mitotic index: mitotic cells per 1,000 cells, control 37.9 ? 2.9, *P < 0.05 vs control
Excerpt: (§1) Br. J. Cancer (1994). 70, 886 892 ? Macmillan Press Ltd.. […] Bombesin GRP antagonists. […] Lung carcinoma is the leading cause of cancer-related deaths in the western world. It is estimated that in 1992 there were approximately 168,000 new cases of lung cancer in the US and that about 146,000 deaths occurred from this disease (Boring et al., 1992). […] The growth factors such as bombesin/gastrin-releasing pep- tide (GRP), epidermal growth factor, (EGF), transforming growth factor a (TGF-x) and insulin-like growth factor I(IGF-I) appear to play a role in the proliferation and pro- gression of lung cancer (Cuttitta et al., 1985; Veale et al., 1987; Minuto et al., 1988; Siegfried & Owens, 1988; Macaulay et al., 1990; Tateishi et al., 1991; Damstrup et al., 1992; Sethi & Rozengurt, 1992; Rabiasz et al., 1992; Moody & Cuttitta, 1993). […] Tpi is 2,3,4,9-tetrahydro- Correspondence: A.V. Schally (151). VA Medical Center, 1601 Per- dido Street. New Orleans, LA 70146. USA. Received 1 March 1994; and in revised form 5 July 1994. Br. J. Cancer (1994), 70, 886-892 C Macmillan Press Ltd., 1994 PEPTIDE ANALOGUES IN LUNG CANCER 8U7 lH-pyrido [3,4bjindol-3-carboxylic acid, a conformationally constrained secondary amine derivate of tryptophan and Tac is thiazolidine-4-carboxylic acid. […] Animals Male athymic NCr nulmu nude mice, approximately 6 weeks old on arrival, were obtained from the NCI (Bethesda, MD, USA) and maintained under pathogen-limited conditions. Cell lines The human SCLC cell line NCI-H69, was obtained from the American Type Cell Culture (ATCC), Rockville, MD, USA and the non-SCLC cell line NCI-H157, from Dr H. Oie, NCI-Navy Medical Oncology Branch, Bethesda, MD, USA. These cell lines were cultured in RPMI-1640 medium supple- mented with 4 mM L-glutamine, 50 units ml-I penicilln G sodium, SOigml-' streptomycin sulphate, 0.125pgml-' amphotericin B and 10% fetal bovine serum at 3TC in a humidified 95% air/5% carbon dioxide atmosphere. CeLs were passaged weekly and routinely monitored for myco- plasma contamination using a detection kit (Boehringer- Mannheim, Mannheim, Germany). All culture media com- ponents were purchased from Gibco (Grand Island, NY, USA). Receptor assays Preparation of membranes for receptor studies was described previously (Halmos et al., 1993). Iodinated EGF and IGF-I were purchased from Amersham (Arlington Heights, IL, USA). Radioiodination of other peptides and receptor bind- ing of EGF, IGF-I, somatostatin and bombesin/GRP were performed as previously described (Srkalovic et al., 1989; Szepeshazi et al., 1992). Complete displacement assays on tumour membranes were done only once because of the shortage of tumour material. The LIGAND PC computerised curve-fitting programme of Munson and Rodbard (1980) was used to determine the types of receptor binding, dissociation constant (Kd) values, and the maximal binding capacity (BDj) of receptors. In order to determine the specificity of the binding sites for radiolabelled EGF, IGF-I, somatostatin and bombesin to lung cancer membranes, various structuraly related and unrelated peptides were tested for their ability to inhibit the binding of the tracers. Histological procedure The histological procedures were the same as described previously (Szepeshazi et al., 1991, 1992). The number of mitotic and apoptotic cells per 1,000 cells was determined, and the percentage area of necrosis in tumour sections was examined using the point-counting method (Szepeshazi et al., 1991, 1992), in which the crossing points of an ocular net that coincide with necrosis in various sections are counted. Radiommunoassays Serum levels of growth hormone were determined by double- antibody radioimmunoassay (RIA) using materials supplied by the National Hormone and Pituitary Program of the National Institute of Diabetes and Digestive and Kidney Diseases (NIDDK).

[2] = tested on: Bombesin/GRP receptors in membranes of SCLC H69 tumours; assay: Bombesin/GRP receptor binding on H69 tumour membranes after in vivo treatment; parameters: species or system human; details: after in vivo treatment
Excerpt: as §1, with “In order to determine the specificity of the binding sites for radiolabelled EGF, IGF-I, somatostatin and bombesin to lung cancer membranes, various structuraly related and unrelated peptides were tested for their ability to inhibit the binding of the tracers. Histological procedure The histological procedures were the same as described previously (Szepeshazi et al., 1991, 1992).” left out

[3] = tested on: IGF-I receptors in membranes of SCLC H69 tumours; assay: IGF-I receptor binding on H69 tumour membranes after in vivo treatment; parameters: species or system human; details: Table IV, Experiment I (SCLC-H69), control 294, done once
Excerpt: as §1, with “Receptor assays Preparation of membranes for receptor studies was described previously (Halmos et al., 1993). Iodinated EGF and IGF-I were purchased from Amersham (Arlington Heights, IL, USA). Radioiodination of other peptides and receptor bind- ing of EGF, IGF-I, somatostatin and bombesin/GRP were performed as previously described (Srkalovic et al., 1989; Szepeshazi et al., 1992). Complete displacement assays on tumour membranes were done only once because of the shortage of tumour material. The LIGAND PC computerised curve-fitting programme of Munson and Rodbard (1980) was used to determine the types of receptor binding, dissociation constant (Kd) values, and the maximal binding capacity (BDj) of receptors. In order to determine the specificity of the binding sites for radiolabelled EGF, IGF-I, somatostatin and bombesin to lung cancer membranes, various structuraly related and unrelated peptides were tested for their ability to inhibit the binding of the tracers. Histological procedure The histological procedures were the same as described previously (Szepeshazi et al., 1991, 1992).” left out

[4] = tested on: human SCLC cell line NCI-H69; assay: Growth of H69 SCLC xenografts in nude mice; format: in vivo, human (xenograft in male athymic nude mice); details: for Tumour weight: antagonists 20 µg/day per animal, control 0.27 ? 0.19; for Tumour doubling time: antagonists 20 µg/day per animal s.c., control 7.5; for Growth of H69 SCLC tumours (in words): s.c. peritumorally, bombesin/GRP antagonists 20 µg per animal per day
Excerpt: as §1

[5] = tested on: non-SCLC cell line NCI-H157; assay: Growth of H157 non-SCLC xenografts in nude mice; format: in vivo, human (xenograft in male athymic nude mice); details: RC-160 100 µg/day, RC-3095 20 µg/day
Excerpt: as §1

[6] = tested on: IGF-I receptors in membranes of non-SCLC H157 tumours; assay: IGF-I receptor binding on H157 tumour membranes after in vivo treatment; parameters: species or system human
Excerpt: as §1, with “Receptor assays Preparation of membranes for receptor studies was described previously (Halmos et al., 1993). Iodinated EGF and IGF-I were purchased from Amersham (Arlington Heights, IL, USA). Radioiodination of other peptides and receptor bind- ing of EGF, IGF-I, somatostatin and bombesin/GRP were performed as previously described (Srkalovic et al., 1989; Szepeshazi et al., 1992). Complete displacement assays on tumour membranes were done only once because of the shortage of tumour material. The LIGAND PC computerised curve-fitting programme of Munson and Rodbard (1980) was used to determine the types of receptor binding, dissociation constant (Kd) values, and the maximal binding capacity (BDj) of receptors. In order to determine the specificity of the binding sites for radiolabelled EGF, IGF-I, somatostatin and bombesin to lung cancer membranes, various structuraly related and unrelated peptides were tested for their ability to inhibit the binding of the tracers. Histological procedure The histological procedures were the same as described previously (Szepeshazi et al., 1991, 1992).” left out

[7] = tested on: EGF receptors in membranes of non-SCLC H157 tumours; assay: EGF receptor binding on H157 tumour membranes after in vivo treatment; parameters: species or system human
Excerpt: as §1, with “Receptor assays Preparation of membranes for receptor studies was described previously (Halmos et al., 1993). Iodinated EGF and IGF-I were purchased from Amersham (Arlington Heights, IL, USA). Radioiodination of other peptides and receptor bind- ing of EGF, IGF-I, somatostatin and bombesin/GRP were performed as previously described (Srkalovic et al., 1989; Szepeshazi et al., 1992). Complete displacement assays on tumour membranes were done only once because of the shortage of tumour material. The LIGAND PC computerised curve-fitting programme of Munson and Rodbard (1980) was used to determine the types of receptor binding, dissociation constant (Kd) values, and the maximal binding capacity (BDj) of receptors. In order to determine the specificity of the binding sites for radiolabelled EGF, IGF-I, somatostatin and bombesin to lung cancer membranes, various structuraly related and unrelated peptides were tested for their ability to inhibit the binding of the tracers. Histological procedure The histological procedures were the same as described previously (Szepeshazi et al., 1991, 1992).” left out

[8] = tested on: EGF receptors in membranes of SCLC H69 tumours; assay: EGF receptor binding on H69 tumour membranes after in vivo treatment; parameters: species or system human; details: Table IV, Experiment I (SCLC-H69); tumour membranes after in vivo treatment; control 278; ten-point displacement in triplicate tubes, done once
Excerpt: as §1, with “In order to determine the specificity of the binding sites for radiolabelled EGF, IGF-I, somatostatin and bombesin to lung cancer membranes, various structuraly related and unrelated peptides were tested for their ability to inhibit the binding of the tracers. Histological procedure The histological procedures were the same as described previously (Szepeshazi et al., 1991, 1992).” left out

[9] = tested on: Somatostatin receptors in membranes of SCLC H69 tumours; assay: Somatostatin receptor binding on H69 tumour membranes after in vivo treatment; parameters: species or system human; details: Table IV, Experiment I (SCLC-H69); tumour membranes after in vivo treatment; control 450; done once
Excerpt: as §1, with “In order to determine the specificity of the binding sites for radiolabelled EGF, IGF-I, somatostatin and bombesin to lung cancer membranes, various structuraly related and unrelated peptides were tested for their ability to inhibit the binding of the tracers. Histological procedure The histological procedures were the same as described previously (Szepeshazi et al., 1991, 1992).” left out

[10] = tested on: EGF receptor levels in tumour membranes (pancreatic, prostatic, mammary and colorectal cancers); details: associated with inhibition of growth of pancreatic, ref Radulovic et al., 1991b, Szepeshazi et al., 1991, 1992, Pinski et al., 1994a; cited from earlier work
Excerpt: (§2) Br. J. Cancer (1994). 70, 886 892 ? Macmillan Press Ltd..

[11] = tested on: EGF receptors; details: various cancer lines and cancer specimens; ref Liebow et al., 1992; cited from earlier work
Excerpt: as §2

[12] = Table I, Experiment I (SCLC-H69), 5 weeks s.c. peritumoral, RC-160 100 µg/day, means ? s.d., *P<0.05 vs control
[13] = Table I, Experiment I (SCLC-H69), 5 weeks, RC-160 100 µg/day
[14] = H69 SCLC xenografts, as compared with control group, RC-160 100 µg, RC-3950-II 20 µg per animal per day s.c. peritumorally, 5 weeks

Row | Substance | Extent of necrosis (in words) [1] | Apoptotic index [1] | Mitotic index [1] | Concentration of receptors for bombesin/GRP on H69 tumours (in words) [2] | IGF-I maximal binding capacity (Bmax) [3] [fmol mg' protein] | Tumour weight [4, 12] | Tumour doubling time [4, 13] [days] | Growth of H69 SCLC tumours (in words) ([4]; RC-160 100 µg, 5 weeks) | EGF maximal binding capacity (Bmax) [8] [fmol mg' protein] | Somatostatin maximal binding capacity (Bmax) [9] [fmol mg-'protein] | further results
1 | [D-Tpi6, Leu'3, *(CH2NH)Leu'4] bombesin (6- 14) [RC-3095] | less exten- sive | 36.5 | 28.8 | reduced to non-detectable levels | 300 | 0.081 0.06* g | 12.2 | inhibited the growth of H69 SCLC tumours | 102 | 480 | Tumour volume, final ([4]; Table I, Experiment I (SCLC-H69), 5 weeks s.c. peritumoral, RC-160 100 µg/day, RC-3440, RC-3095, RC-3950-II 20 µg/day per animal, control 249.7 ? 182.3, means ? s.d., ten animals per group, *P<0.05 vs control): 80.2 mm³; Growth of H157 non-SCLC tumours (in words) ([5]; 4 weeks s.c., SB-75 100 µg/day per animal, vs control): No significant reduction in final tumour volume, tumour weight and tumour growth; Tumour volume, final ([5]; Table I, Experiment II (non-SCLC H157), 4 weeks s.c. peritumoral, SB-75 100 µg/day per animal, control 1580.3 ? 455.7, means ? s.d., ten animals per group, *P<0.05 vs control): 913 mm³; Tumour doubling time ([5]; Table I, Experiment II (non-SCLC H157), 4 weeks s.c., SB-75 100 µg/day, control 3.88): 4.42 days; IGF-I maximal binding capacity (Bmax) ([6]; Table IV, Experiment II (non-SCLC H157), tumour membranes after in vivo treatment, control 257, done once): 270 fmol mg' protein; IGF-I binding sites on H157 tumours (in words) ([6]; after in vivo treatment): no effect; EGF maximal binding capacity (Bmax) ([7]; Table IV, Experiment II (non-SCLC H157), tumour membranes after in vivo treatment, control 249, done once): 207 fmol mg' protein; EGF binding capacity on H157 tumours (in words) ([7]; after in vivo treatment): no effect; EGF receptor levels in tumour membranes (in words) [10]: major decrease in EGF receptor levels; Effect on phosphorylation of EGF receptors (in words) [11]: inhibits these effects
2 | [D-Phe6, Leu'3*(CH,N)Tac'1 bombesin (6-14) [RC-3950-II] | less exten- sive | 41.5 | 49.8 | reduced to non-detectable levels | 226 | 0.03 0.03* g | 16.8 | greatest inhibitory effect | 93 | 390 | Reduction in tumour volumes [4, 14]: more than 80%; Reduction in tumour weights [4, 14]: more than 80%

Reference: article PMC2033546, “Effects of somatostatin analogue RC-160 and bombesin/gastrin-releasing peptide antagonists on the growth of human small-cell and non-small-cell lung carcinomas in nude mice” (British Journal of Cancer, 1994)
